Reference: publication PMC11148080, “Ru(II)-based complexes containing 2-thiouracil derivatives suppress liver cancer stem cells by targeting NF-κB and Akt/mTOR signaling” (Cell Death Discovery, 2024)

Experiments:
4T1 = assay: Alamar Blue cytotoxicity; assay type: cell-based, mouse
Method: (§1) The Alamar Blue assay was used to measure cell viability, as previously described. Adherent cells were seeded in 96-well plates at a density of 7 × 10^3 cells per well, and suspended cells were seeded at 3 × 10^4 cells per well. Drugs were added to each well after overnight incubation for adherent cells or immediately after seeding for suspension cells, and incubation continued for an additional 72 h. The positive control included doxorubicin (Laboratorio IMA S.A.I.C., Buenos Aires, Argentina). Four hours (for cell lines) or 24 h (for primary cultures) before the end of incubation, 20 μL of resazurin (30 μM) (Sigma‒Aldrich Co. St. Louis, MO, USA) was added to each well. The absorbance at 570 and 600 nm was measured using a SpectraMax 190 microplate reader (Molecular Devices, Sunnyvale, CA, USA).

B16-F10 = assay: Alamar Blue cytotoxicity; assay type: cell-based, mouse
Method: as §1

A-375 = assay: Alamar Blue cytotoxicity; assay type: cell-based, human
Method: as §1

A549 = assay: Alamar Blue cytotoxicity; assay type: cell-based, human
Method: as §1

CAL 27 = assay: Alamar Blue cytotoxicity; assay type: cell-based, human
Method: as §1

DU 145 = assay: Alamar Blue cytotoxicity; assay type: cell-based, human
Method: as §1

HCT116 = assay: Alamar Blue cytotoxicity; assay type: cell-based, human
Method: as §1

HSC-3 = assay: Alamar Blue cytotoxicity; assay type: cell-based, human
Method: as §1

HepG2 = assay: Alamar Blue cytotoxicity; assay type: cell-based, human
Method: as §1

Jurkat = assay: Alamar Blue cytotoxicity; assay type: cell-based, human
Method: as §1

K-562 = assay: Alamar Blue cytotoxicity; assay type: cell-based, human
Method: as §1

KG-1a = assay: Alamar Blue cytotoxicity; assay type: cell-based, human
Method: as §1

MCF-7 = assay: Alamar Blue cytotoxicity; assay type: cell-based, human
Method: as §1

MDA-MB-231 = assay: Alamar Blue cytotoxicity; assay type: cell-based, human
Method: as §1

NB4 = assay: Alamar Blue cytotoxicity; assay type: cell-based, human
Method: as §1

OVCAR-3 = assay: Alamar Blue cytotoxicity; assay type: cell-based, human
Method: as §1

PANC-1 = assay: Alamar Blue cytotoxicity; assay type: cell-based, human
Method: as §1

SCC-25 = assay: Alamar Blue cytotoxicity; assay type: cell-based, human
Method: as §1

SCC-9 = assay: Alamar Blue cytotoxicity; assay type: cell-based, human
Method: as §1

SCC4 = assay: Alamar Blue cytotoxicity; assay type: cell-based, human
Method: as §1

THP-1 = assay: Alamar Blue cytotoxicity; assay type: cell-based, human
Method: as §1

U-87 MG = assay: Alamar Blue cytotoxicity; assay type: cell-based, human
Method: as §1

HepG2 cells = assay: Annexin V-FITC/PI apoptosis detection; assay type: cell-based, human; conditions: HepG2; DOX 1 μM, positive control
Method: For apoptosis detection, cell viability was quantified using Annexin V-FITC/PI (FITC Annexin V Apoptosis Detection Kit I, BD Biosciences, San Jose, CA, USA) according to the manufacturer’s instructions. The cells were also stained with rhodamine 123 (5 μg/mL, Sigma Aldrich Co.) for 15 min at 37 °C in the dark to assess the mitochondrial transmembrane potential. After the cells were washed, they were incubated in saline for 30 min in the dark at 37 °C and analyzed by flow cytometry. For all flow cytometry analyses, cellular fluorescence was measured using a BD LSRFortessa cytometer, BD FACSDiva software (BD Biosciences) and FlowJo software 10 (FlowJo LLC; Ashland, OR, USA). A minimum of 10,000 events were obtained per sample for intracellular staining, and a minimum of 30,000 events per sample were acquired for cell surface protein staining. Doublets were removed using FSC-A vs FCS-H and SCC-A vs SCC-H. Cellular debris was excluded from the analysis.

SMILES: COc1cccc2c1C(=O)c1c(O)c3c(c(O)c1C2=O)C[C@@](O)(C(=O)CO)C[C@@H]3O[C@H]1C[C@H](N)[C@H](O)[C@H](C)O1 [Doxorubicin]
- Selectivity index (4T1; IC50 BJ/IC50 4T1): 1.21
- Selectivity index (4T1; IC50 MRC-5/IC50 4T1): 1.11
- Selectivity index (4T1; IC50 PBMC/IC50 4T1): 0.87
- IC50 (4T1; Mus musculus, 4T1, 72 h): 1530 nM
- Selectivity index (B16-F10; IC50 BJ/IC50 B16-F10): 4.30
- Selectivity index (B16-F10; IC50 MRC-5/IC50 B16-F10): 3.95
- Selectivity index (B16-F10; IC50 PBMC/IC50 B16-F10): 3.09
- IC50 (B16-F10; Mus musculus, B16-F10, 72 h): 430 nM
- IC50 (A-375; Homo sapiens, A-375, 72 h): 160 nM
- Selectivity index (A-375; IC50 BJ/IC50 A-375): 11.56
- Selectivity index (A-375; IC50 MRC-5/IC50 A-375): 10.63
- Selectivity index (A-375; IC50 PBMC/IC50 A-375): 8.31
- Selectivity index (A549; IC50 BJ/IC50 A549): 0.79
- Selectivity index (A549; IC50 MRC-5/IC50 A549): 0.72
- Selectivity index (A549; IC50 PBMC/IC50 A549): 0.57
- IC50 (CAL 27; Homo sapiens, CAL 27, 72 h): 110 nM
- Selectivity index (CAL 27; IC50 BJ/IC50 CAL 27): 16.82
- Selectivity index (CAL 27; IC50 MRC-5/IC50 CAL 27): 15.45
- Selectivity index (CAL 27; IC50 PBMC/IC50 CAL 27): 12.09
- IC50 (DU 145; Homo sapiens, DU 145, 72 h): 240 nM
- Selectivity index (DU 145; IC50 BJ/IC50 DU 145): 7.71
- Selectivity index (DU 145; IC50 MRC-5/IC50 DU 145): 7.08
- Selectivity index (DU 145; IC50 PBMC/IC50 DU 145): 5.54
- IC50 (HCT116; Homo sapiens, HCT-116, HCT116, 72 h): 860 nM
- Selectivity index (HCT116; IC50 BJ/IC50 HCT116): 2.15
- Selectivity index (HCT116; IC50 MRC-5/IC50 HCT116): 1.98
- Selectivity index (HCT116; IC50 PBMC/IC50 HCT116): 1.55
- IC50 (HSC-3; Homo sapiens, HSC-3, 72 h): 690 nM
- Selectivity index (HSC-3; IC50 BJ/IC50 HSC-3): 2.68
- Selectivity index (HSC-3; IC50 MRC-5/IC50 HSC-3): 2.46
- Selectivity index (HSC-3; IC50 PBMC/IC50 HSC-3): 1.93
- IC50 (HepG2; Homo sapiens, HepG2, 72 h): 320 nM
- Selectivity index (HepG2; IC50 BJ/IC50 HepG2): 5.78
- Selectivity index (HepG2; IC50 MRC-5/IC50 HepG2): 5.31
- Selectivity index (HepG2; IC50 PBMC/IC50 HepG2): 4.16
- IC50 (Jurkat; Homo sapiens, Jurkat, 72 h): 60 nM
- Selectivity index (Jurkat; IC50 BJ/IC50 Jurkat): 30.83
- Selectivity index (Jurkat; IC50 MRC-5/IC50 Jurkat): 28.33
- Selectivity index (Jurkat; IC50 PBMC/IC50 Jurkat): 22.17
- IC50 (K-562; Homo sapiens, K562, K-562, 72 h): 1650 nM
- Selectivity index (K-562; IC50 BJ/IC50 K-562): 1.12
- Selectivity index (K-562; IC50 MRC-5/IC50 K-562): 1.03
- Selectivity index (K-562; IC50 PBMC/IC50 K-562): 0.81
- IC50 (KG-1a; Homo sapiens, KG-1a, 72 h): 70 nM
- Selectivity index (KG-1a; IC50 BJ/IC50 KG-1a): 26.43
- Selectivity index (KG-1a; IC50 MRC-5/IC50 KG-1a): 24.29
- Selectivity index (KG-1a; IC50 PBMC/IC50 KG-1a): 19.00
- IC50 (MCF-7; Homo sapiens, MCF7, MCF-7, 72 h): 2280 nM
- Selectivity index (MCF-7; IC50 BJ/IC50 MCF-7): 0.81
- Selectivity index (MCF-7; IC50 MRC-5/IC50 MCF-7): 0.75
- Selectivity index (MCF-7; IC50 PBMC/IC50 MCF-7): 0.58
- IC50 (MDA-MB-231; Homo sapiens, MDA-MB-231, 72 h): 430 nM
- Selectivity index (MDA-MB-231; IC50 BJ/IC50 MDA-MB-231): 4.30
- Selectivity index (MDA-MB-231; IC50 MRC-5/IC50 MDA-MB-231): 3.95
- Selectivity index (MDA-MB-231; IC50 PBMC/IC50 MDA-MB-231): 3.09
- IC50 (NB4; Homo sapiens, NB-4, NB4, 72 h): 90 nM
- Selectivity index (NB4; IC50 BJ/IC50 NB4): 20.56
- Selectivity index (NB4; IC50 MRC-5/IC50 NB4): 18.89
- Selectivity index (NB4; IC50 PBMC/IC50 NB4): 14.78
- IC50 (OVCAR-3; Homo sapiens, OVCAR-3, 72 h): 1060 nM
- Selectivity index (OVCAR-3; IC50 BJ/IC50 OVCAR-3): 1.75
- Selectivity index (OVCAR-3; IC50 MRC-5/IC50 OVCAR-3): 1.60
- Selectivity index (OVCAR-3; IC50 PBMC/IC50 OVCAR-3): 1.25
- IC50 (PANC-1; Homo sapiens, PANC-1, 72 h): 1110 nM
- Selectivity index (PANC-1; IC50 BJ/IC50 PANC-1): 1.67
- Selectivity index (PANC-1; IC50 MRC-5/IC50 PANC-1): 1.53
- Selectivity index (PANC-1; IC50 PBMC/IC50 PANC-1): 1.20
- IC50 (SCC-25; Homo sapiens, SCC-25, 72 h): 1440 nM
- Selectivity index (SCC-25; IC50 BJ/IC50 SCC-25): 1.28
- Selectivity index (SCC-25; IC50 MRC-5/IC50 SCC-25): 1.18
- Selectivity index (SCC-25; IC50 PBMC/IC50 SCC-25): 0.92
- IC50 (SCC-9; Homo sapiens, SCC-9, 72 h): 1000 nM
- Selectivity index (SCC-9; IC50 BJ/IC50 SCC-9): 1.85
- Selectivity index (SCC-9; IC50 MRC-5/IC50 SCC-9): 1.70
- Selectivity index (SCC-9; IC50 PBMC/IC50 SCC-9): 1.33
- IC50 (SCC4; Homo sapiens, SCC-4, SCC4, 72 h): 1800 nM
- Selectivity index (SCC4; IC50 BJ/IC50 SCC4): 1.03
- Selectivity index (SCC4; IC50 MRC-5/IC50 SCC4): 0.94
- Selectivity index (SCC4; IC50 PBMC/IC50 SCC4): 0.74
- IC50 (THP-1; Homo sapiens, THP-1, 72 h): 140 nM
- Selectivity index (THP-1; IC50 BJ/IC50 THP-1): 13.21
- Selectivity index (THP-1; IC50 MRC-5/IC50 THP-1): 12.14
- Selectivity index (THP-1; IC50 PBMC/IC50 THP-1): 9.50
- IC50 (U-87 MG; Homo sapiens, U-87 MG, 72 h): 520 nM
- Selectivity index (U-87 MG; IC50 BJ/IC50 U-87 MG): 3.56
- Selectivity index (U-87 MG; IC50 MRC-5/IC50 U-87 MG): 3.27
- Selectivity index (U-87 MG; IC50 PBMC/IC50 U-87 MG): 2.56
- apoptosis (HepG2 cells): also led to apoptosis
